According to paper PMC8989888, “Development of optimized drug-like small molecule inhibitors of the SARS-CoV-2 3CL protease for treatment of COVID-19” (Nature Communications, 2022):
Where “and” joins values, the source holds several entries; their conditions need not be identical. Equal values may be shown once.

Test system: SARS-CoV-2
Assay: microbe, parasite or virus in culture
Type: cell-based

CC(C)C[C@H](NC(=O)OCc1cccc(Cl)c1)C(=O)N[C@@H](C[C@@H]1CCNC1=O)C(O)S(=O)(=O)O (stereo partly shown) [EB46] was tested, and the “inhibition of SARS-CoV-2 (Figure S17A dose-response, replicate values)” value (“inhibition” below) was 0 (10×) and 100 (6×) and 37.5 (2×) and 50 and 12.5 (2×).
With O=C(N[C@@H](CC1CCCCC1)C(=O)N[C@@H](C[C@@H]1CCNC1=O)C(O)S(=O)(=O)O)OCc1cccc(Cl)c1 (stereo partly shown) [EB48] the “inhibition” value was 0 (11×) and 68.75 and 75 and 93.75 and 25 (3×) and 50 and 37.5 and 12.5 (2×).
For CC(C)C[C@H](NC(=O)OCc1ccccc1Cl)C(=O)N[C@@H](C[C@@H]1CCNC1=O)C(O)S(=O)(=O)O (stereo partly shown) [EB54], the “inhibition” value was 0 (6×) and 100 (6×) and 50 (3×) and 12.5 (4×) and 25 (2×).
CC(C)C[C@H](NC(=O)OCc1cccc2ccccc12)C(=O)N[C@@H](C[C@@H]1CCNC1=O)C(O)S(=O)(=O)O (stereo partly shown) [EB55] was tested, and the “inhibition” value was 0 (10×) and 100 (4×) and 93.75 (2×) and 12.5 (5×).
With CC(C)C[C@H](NC(=O)OCc1ccc2ccccc2c1)C(=O)N[C@@H](C[C@@H]1CCNC1=O)C(O)S(=O)(=O)O (stereo partly shown) [EB56] the “inhibition” value was 0 (5×) and 12.5 (8×) and 93.75 (3×) and 87.5 (3×) and 50 and 25.
With CC(C)CC(NC(=O)OCc1ccccc1)C(=O)NC(CC1CCNC1=O)C(O)S(=O)(=O)O (stereo not shown) [GC376, reference compound] the “inhibition” value was 0 (14×) and 87.5 and 93.75 and 100 and 37.5 and 62.5 and 68.75 and 12.5.
In the case of O=C(N[C@@H](CC1CCCCC1)C(=O)N[C@@H](C[C@@H]1CCNC1=O)C(O)S(=O)(=O)O)OCc1ccccc1 (stereo partly shown) [SL-4-241], the “inhibition” value is reported as 0 (14×) and 100 (2×) and 81.25 and 25 (2×) and 12.5 (2×).
